Experimental data taken from the NIST ThermoML archive (doi:10.1021/acs.jced.8b01095).
± gives the expanded uncertainty stated by the source.

Assay: xn = mol fraction of the nth substance listed
Details: Liquid; for viscosity: 2 kPa, Falling or rolling sphere viscometry; for speed of sound / mass density: 100 kPa; for speed of sound: Single path-length method; for mass density: Vibrating tube method

CNc1ccccc1 [N-methylaniline] + CCCCn1cc[n+](C)c1.F[P-](F)(F)(F)(F)F
Details | mass density [kg/m3] | speed of sound [m/s] | viscosity [mPa·s]
298.15 K, x2 = 0 | 982.7 ± 1 | 1564.5 ± 3 | 1.94 ± 0.62
298.15 K, x2 = 0.1076 | 1064.1 ± 1 | 1558.7 ± 3.1 | 5.42 ± 1.9
298.15 K, x2 = 0.2146 | 1128.52 ± 1 | 1549.8 ± 3.1 | 11.47 ± 4
298.15 K, x2 = 0.3053 | 1174.31 ± 1 | 1538.2 ± 3.1 | 22.49 ± 6.3
298.15 K, x2 = 0.3985 | 1214.23 ± 1 | 1516.1 ± 3.1 | 37.19 ± 9.7
298.15 K, x2 = 0.4805 | 1243.22 ± 1 | 1497.1 ± 3.1 | 53.52 ± 12
298.15 K, x2 = 0.5766 | 1272.38 ± 1.1 | 1481.9 ± 3.1 | 71.45 ± 16
298.15 K, x2 = 0.6793 | 1299.48 ± 1.1 | 1468.8 ± 3.1 | 95.21 ± 19
298.15 K, x2 = 0.7871 | 1325.04 ± 1.1 | 1457.9 ± 3.1 | 126.78 ± 33
298.15 K, x2 = 0.9009 | 1348.44 ± 1.1 | 1447.2 ± 3.1 | 187.23 ± 49
303.15 K, x2 = 0 | 978.59 ± 1 | 1546.1 ± 3 | 1.73 ± 0.62
303.15 K, x2 = 0.1076 | 1060.11 ± 1 | 1542.2 ± 3.1 | 4.31 ± 1.2
303.15 K, x2 = 0.2146 | 1124.54 ± 1 | 1534.3 ± 3.1 | 9.24 ± 2.1
303.15 K, x2 = 0.3053 | 1170.33 ± 1 | 1523.4 ± 3.1 | 16.65 ± 4.5
303.15 K, x2 = 0.3985 | 1210.27 ± 1 | 1502.3 ± 3.1 | 27.2 ± 7.3
303.15 K, x2 = 0.4805 | 1239.24 ± 1 | 1484.1 ± 3.1 | 39.53 ± 10
303.15 K, x2 = 0.5766 | 1268.37 ± 1.1 | 1469.4 ± 3.1 | 53.54 ± 13
303.15 K, x2 = 0.6793 | 1295.43 ± 1.1 | 1456.7 ± 3.1 | 74.21 ± 17
303.15 K, x2 = 0.7871 | 1320.94 ± 1.1 | 1445.9 ± 3.1 | 96.09 ± 23
303.15 K, x2 = 0.9009 | 1344.33 ± 1.1 | 1435.4 ± 3.1 | 140.54 ± 34
308.15 K, x2 = 0 | 974.47 ± 1 | 1528.3 ± 3 | 1.55 ± 0.61
308.15 K, x2 = 0.1076 | 1056.11 ± 1 | 1525.9 ± 3.1 | 3.52 ± 0.98
308.15 K, x2 = 0.2146 | 1120.57 ± 1 | 1518.9 ± 3.1 | 7.54 ± 1.7
308.15 K, x2 = 0.3053 | 1166.34 ± 1 | 1508.8 ± 3.1 | 12.57 ± 3.2
308.15 K, x2 = 0.3985 | 1206.32 ± 1 | 1488.9 ± 3.1 | 20.33 ± 5.1
308.15 K, x2 = 0.4805 | 1235.26 ± 1 | 1471.1 ± 3.1 | 29.79 ± 7.1
308.15 K, x2 = 0.5766 | 1264.35 ± 1.1 | 1456.7 ± 3.1 | 40.88 ± 9.1
308.15 K, x2 = 0.6793 | 1291.38 ± 1.1 | 1444.4 ± 3.1 | 53.97 ± 13
308.15 K, x2 = 0.7871 | 1316.84 ± 1.1 | 1433.9 ± 3.1 | 72.45 ± 16
308.15 K, x2 = 0.9009 | 1340.21 ± 1.1 | 1423.5 ± 3.1 | 107.54 ± 24
313.15 K, x2 = 0 | 970.36 ± 1 | 1511.5 ± 3 | 1.4 ± 0.61
313.15 K, x2 = 0.1076 | 1052.12 ± 1 | 1506.7 ± 3.1 | 2.95 ± 0.84
313.15 K, x2 = 0.2146 | 1116.59 ± 1 | 1500.8 ± 3.1 | 6.01 ± 1.4
313.15 K, x2 = 0.3053 | 1162.35 ± 1 | 1492.6 ± 3.1 | 9.66 ± 2.2
313.15 K, x2 = 0.3985 | 1202.36 ± 1 | 1475.5 ± 3.1 | 15.49 ± 3.7
313.15 K, x2 = 0.4805 | 1231.27 ± 1 | 1458 ± 3.1 | 22.87 ± 5.2
313.15 K, x2 = 0.5766 | 1260.34 ± 1.1 | 1444.2 ± 3.1 | 31.76 ± 6.7
313.15 K, x2 = 0.6793 | 1287.33 ± 1.1 | 1432.3 ± 3.1 | 42.71 ± 8.3
313.15 K, x2 = 0.7871 | 1312.75 ± 1.1 | 1422.2 ± 3.1 | 57.32 ± 11
313.15 K, x2 = 0.9009 | 1336.1 ± 1.1 | 1411.9 ± 3.1 | 83.73 ± 18
318.15 K, x2 = 0 | 966.24 ± 1 | 1492.8 ± 3 | 1.27 ± 0.61
318.15 K, x2 = 0.1076 | 1048.13 ± 1 | 1491.1 ± 3.1 | 2.5 ± 0.78
318.15 K, x2 = 0.2146 | 1112.61 ± 1 | 1488.2 ± 3.1 | 5 ± 1.1
318.15 K, x2 = 0.3053 | 1158.36 ± 1 | 1479.8 ± 3.1 | 7.84 ± 1.6
318.15 K, x2 = 0.3985 | 1198.4 ± 1 | 1462.1 ± 3.1 | 12.02 ± 2.8
318.15 K, x2 = 0.4805 | 1227.29 ± 1 | 1445.1 ± 3.1 | 17.73 ± 4.1
318.15 K, x2 = 0.5766 | 1256.33 ± 1 | 1431.8 ± 3.1 | 25.05 ± 5.2
318.15 K, x2 = 0.6793 | 1283.28 ± 1.1 | 1420.3 ± 3.1 | 34.26 ± 6.3
318.15 K, x2 = 0.7871 | 1308.65 ± 1.1 | 1410.4 ± 3.1 | 46.02 ± 8.5
318.15 K, x2 = 0.9009 | 1331.99 ± 1.1 | 1400.5 ± 3.1 | 66.23 ± 13
323.15 K, x2 = 0 | 962.13 ± 1 | 1476.2 ± 3 | 1.16
323.15 K, x2 = 0.1076 | 1044.13 ± 1 | 1473.9 ± 3.1 | 2.07 ± 0.66
323.15 K, x2 = 0.2146 | 1108.64 ± 1 | 1471.7 ± 3.1 | 4.02 ± 0.95
323.15 K, x2 = 0.3053 | 1154.38 ± 1 | 1466.1 ± 3.1 | 6.32 ± 1.3
323.15 K, x2 = 0.3985 | 1194.44 ± 1 | 1448.8 ± 3.1 | 9.48 ± 1.9
323.15 K, x2 = 0.4805 | 1223.3 ± 1 | 1432.3 ± 3.1 | 13.62 ± 3.3
323.15 K, x2 = 0.5766 | 1252.31 ± 1 | 1419.6 ± 3.1 | 19.75 ± 4.2
323.15 K, x2 = 0.6793 | 1279.23 ± 1.1 | 1408.4 ± 3.1 | 27.82 ± 5.2
323.15 K, x2 = 0.7871 | 1304.56 ± 1.1 | 1398.9 ± 3.1 | 37.45 ± 6
323.15 K, x2 = 0.9009 | 1327.88 ± 1.1 | 1389.2 ± 3.1 | 53.14 ± 8.6
